In patent US11986506B2, “Dietary supplements for inhibiting PDE5 and increasing cGMP levels” (LAILA NUTRACEUTICALS, priority 2017, dated 2024):
Counter-ions that a name gives are not always drawn.

Assays:
cyclic GMP = assay: Plasma cyclic GMP estimation by ELISA after mating period; assay type: in vivo, Sprague Dawley rats; conditions: 10 mg/kg oral, plasma after 30 minutes mating period
Description: After 30 minutes of mating period, blood sample were collected from all animals, plasma separated and subjected to cyclic-GMP estimation using cyclic GMP ELISA Kit supplied by Cayman (Cat No 581022) as per the procedure provided by the manufacturer. The plasma cyclic GMP modulation data is summarized in Table 8 and depicted in FIG. 2.
After 30 minutes of mating period, blood sample was collected from each animal, plasma separated and the cyclic-GMP content was estimated using cyclic GMP ELISA Kit supplied by Cayman (Cat No 581022) as per the procedure provided by the manufacturer.

male rats = assay: Stimulation of sexual behaviour in male rats (pre-copulatory and copulatory counts over 30 minutes); assay type: in vivo, Sprague Dawley rats; conditions: 10 mg/kg oral
Description: The extracts of the current invention were then evaluated for their efficacy in vivo to stimulate sexual behavior in male rats. Briefly, healthy Sprague Dawley rats were acclimatized and randomized into various treatment groups (G1 to G6) as summarized in table 5. These animals were introduced to mating with female counterparts, which were previously treated with 100 μg/rat of estradiol benzoate and 1 mg/rat of progesterone at approximately 48 hours and 4 hours respectively prior to mating. […] The scored test parameters include frequency of licking, anogenital sniffing, climbing, genital grooming, mounting and intromission.
Separately, a set of 42 healthy female rats were selected and each of them were treated with single dose of 100 μg of estradiol benzoate and 1 mg of progesterone at approximately 48 hours and 4 hours respectively prior to introduction to mating.
One hour after test substance administration, each male rat was allowed to mate with a female rat in oestrus phase. Male sexual behaviour was measured for a period of 30 minutes with the aid of video recording. The scored test parameters include frequency of licking, anogenital sniffing, climbing, genital grooming, mounting, intromission and the results are summarized in tables 6 and 7, and depicted in FIG. 1.

With `CCCc1nn(C)c2c(=O)[nH]c(-c3cc(S(=O)(=O)N4CCN(C)CC4)ccc3OCC)nc12` [Sildenafil citrate] as the molecule, how does the “Cyclic GMP levels (plasma)” value (cyclic GMP) read?
The value was 18.79 ± 1.65 pmol/mL.

And the “Cyclic GMP levels (plasma)” value (cyclic GMP; listed as sildenafil citrate)?
Its value is 18.79 pmol/mL.

And the “Climbing count Mean ± SE” value (male rats)?
Its value is 13.50 ± 2.96.

What about the “Genital grooming count Mean ± SE” value (male rats) of the same molecule?
Its value is 15.33 ± 9.20.

And the “Intromission frequency Mean ± SE” value (male rats)?
The value was 3.67 ± 2.55.

What about the “Mounting count Mean ± SE” value (male rats) of the same molecule?
The value was 5.50 ± 2.43.

And the “Sniffing count Mean ± SE” value (male rats)?
The value was 25.83 ± 8.55.

And the “Licking count Mean ± SE” value (male rats; 1 hr before mating, 30 minutes)?
The value was 14.83 ± 11.32.
